One data set relates to SCC-61 and rSCC-61 cells. Description: [18F]KS1 in vitro cell uptake in HNSCC cells. The data set is classed as cell-based, human. The procedure: ROS efficacy was evaluated in two tumor cell lines: (1)SCC-61 and rSCC-61 cells (HNSCC) (FIG. 5), and (2) PC3 (PCa) cell lines under normoxic and hypoxic conditions (FIG. 6) following previously published protocols by our group (Sai et al., Peptide-based PET imaging of the tumor restricted IL13RA2 biomarker. Oncotarget 2017, 5; Yamamoto et al., Correlation of 18F-FLT and 18F-FDG uptake on PET with Ki-67 immunohistochemistry in non-small cell lung cancer. European Journal of Nuclear Medicine and Molecular Imaging 2007, 34 (10), 1610-1616; Solingapuram Sai et al., Radiolabeling and initial biological evaluation of [18F]KBM-1 for imaging RAR-α receptors in neuroblastoma. Bioorganic & Medicinal Chemistry Letters 2017, 27 (6), 1425-1427). Several ROS blockers including fresh solution of non-radioactive compounds KS1, KS2, SOD (10 μM) in the cell media were added to the seeded tumor cells 1.0 h prior to radiotracer addition (n=6 per blocker). All the cells were then treated with [^18F]KS1 (2.0 μCi/well, UV mass=0.4 μg/mL and S.A=3100 mCi/μmol) and incubated for 60 min (n=6) at 37° C. All the cells (both with and without blockers) were washed and lysed with lysate buffer solution. Lysate samples from each well were collected for gamma counting.
Similarly, in another experiment, human PCa-PC3 cells were cultured under normoxic (˜21% O2) or hypoxic (1% O2) conditions for 48 h. Thereafter, similar to HNSCC cells (detailed above) all assay steps including blocker treatment, radiotracer addition, incubations, washings and lysis were carried out under normoxic or hypoxic conditions. All hypoxia experiments were performed in a hypoxia chamber (Biospherix X3 Xvivo system). Plates without radioactivity were used as controls. Additional aliquots were taken from each well to measure protein concentration. The counts per minute values of each well were normalized to the amount of radioactivity added to each well and was expressed as percent uptake relative to the control condition. The data were expressed as % ID/mg of protein present in each well.
We reported the basic in vitro cell uptake assay of [^18F]KS1 in PC3 and SCC-61 cell lines using KS1 and ascorbate as blockers (Solingapuram Sai et al., Initial biological evaluations of 18F-KS1, a novel ascorbate derivative to image oxidative stress in cancer. EJNMMI Research 2019, 9 (1), 43), following previously published protocols by our group (Sai, et al., Peptide-based PET imaging of the tumor restricted IL13RA2 biomarker. Oncotarget 2017, 8 (31), 50997-51007; Solingapuram Sai et al., Radiolabeling and initial biological evaluation of [(18)F]KBM-1 for imaging RAR-α receptors in neuroblastoma. Bioorganic & medicinal chemistry letters 2017, 27 (6), 1425-1427; Sattiraju et al., IL13RA2 targeted alpha particle therapy against glioblastomas. Oncotarget 2017, 8 (26), 42997-43007). Here we report complete cell uptake of [^18F]KS1 in SCC-61 and rSCC-61 cell lines of HNSCC using several ROS blocking agents including ascorbate, SOD, catalase, DHE, and non-radioactive compounds KS1 ([…]) and few ROS inducers including doxorubicin and ferritin. These agents were added in the cell media to the seeded tumor cells 1.0 h prior to radiotracer addition (n=6 per blocker). The y counts per minute values of each well were normalized to the amount of radioactivity added to each well and the protein concentration in the well and expressed as percent uptake relative to the control condition. The data were expressed as % ID/mg of protein present in each well. […]

For another data set, the system named is PC3 tumors. Description: microPET imaging in PC3 tumor-bearing mice. The data set is classed as in vivo. Conditions: ROI analysis.
The test system of the next data set is rSCC-61 tumors. Description: Post-PET biodistribution, rSCC-61 tumor-bearing mice. The data set is classed as in vivo. The procedure: Subsequently, post-PET biodistribution was performed in the same SCC-61 or rSCC-61 tumor-bearing mice injected with [^18F]KS1 (FIG. 16). […] High kidney and liver uptake were common with [^18F]radiotracer's distribution at 30 min post-injection.

On to `O=C1O/C(=C/CCl)C(O)=C1OCc1ccc(OCC[18F])cc1` [[^18F]KS1], for which the “uptake increase with ROS inducer doxorubicin” value in the data set on SCC-61 and rSCC-61 cells (Example 8) was approximately 30%. Besides, the “radioactive uptake in SCC-61 cells compared to rSCC-61 uptake” value in the data set on SCC-61 and rSCC-61 cells (Example 8, 60 min, 37° C.) is recorded as approximately 1.5 fold. For the same molecule, the “uptake blocked by nonradioactive KS1” value with SCC-61 and rSCC-61 cells (Example 8, KS1 10 μM added 1.0 h prior) is recorded as approximately 40%. Moreover, in the data set on SCC-61 and rSCC-61 cells (Example 8, SOD 10 μM added 1.0 h prior), the “uptake blocked by SOD” value was approximately 60%. Moreover, in the data set with SCC-61 and rSCC-61 cells (Example 14), the “radioactive uptake in SCC-61 cells compared to rSCC-61 uptake” value is approximately 3 fold, the “radioactive uptake increased by ROS-inducer Dox” value is approximately 20%, the “radioactive uptake increased by ferritin” value is given as approximately 32% and the “radioactive uptake inhibited by catalase” value was approximately 90%. Moreover, in the data set on SCC-61 and rSCC-61 cells (Example 14, KS1 (100 PM) added 1.0 h prior), the “uptake in SCC-61 cells blocked by nonradioactive KS1” value is reported as approximately 70%. Also, in the data set on SCC-61 and rSCC-61 cells (Example 14, added 1.0 h prior), the “uptake in SCC-61 cells blocked by SOD” value is reported as approximately 65% and the “uptake in SCC-61 cells blocked by ascorbate” value was approximately 65%. In addition, the “tumor uptake with nonradioactive KS1 pretreatment, lower than baseline” value in the data set with PC3 tumors (KS1 15 mg/kg 45 min before tracer) was approximately 3 fold. The “tumor uptake on mPET scans” value in the data set with PC3 tumors (baseline) is listed as “high tumor uptake”. Besides, in the data set with rSCC-61 tumors, the “target (tumor) to non-target (muscle) ratio” value is reported as 4.11.

The record behind these values is patent publication US20240261443A1, “COMPOUNDS AND COMPOSITIONS USEFUL AS RADIOTRACERS FOR IMAGING OF REACTIVE OXIDATIVE SPECIES” (Wake Forest University Health Sciences, priority 2019, published 2024).
